Measurements from the supplement of paper PMC11061612.

Experiments:
Assay in all cases: Bliss excess, mean over the matrix (fraction); higher = more synergy
IST-MES1 (Mesothelioma) = test system: IST-MES1 (Mesothelioma)
Procedure, shortened: (§1)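 Cell lines in DMEM/F12 or RPMI with 10% FBS were plated in 1536-well plates, held 24 hours at 37°C, 5% CO2, then given two-drug dose matrices for 72 hours (DMSO typically 0.2%). Viability was read by CellTiter-Glo 2.0 luminescence and scaled as inhibition from 0 (vehicle wells) to 1 (blank wells). Combination Emax is the second-highest inhibition in the matrix; Bliss excess is observed combination effect minus expected EA + EB − EA·EB, EA and EB being single-agent effects.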

WM793B (Melanoma) = test system: WM793B (Melanoma)
Procedure, shortened: as §1

[1] = test system: NCI-H446 (Small Cell Lung Carcinoma)
Procedure, shortened: as §1

[2] = test system: OAW-42 (Ovarian Carcinoma)
Procedure, shortened: as §1

[3] = test system: SK-PN-DW (Other Solid Carcinomas)
Procedure, shortened: as §1

[4] = test system: LK-2 (Squamous Cell Lung Carcinoma)
Procedure, shortened: as §1

[5] = test system: SHP-77 (Small Cell Lung Carcinoma)
Procedure, shortened: as §1

[6] = test system: FADU (Head and Neck Carcinoma)
Procedure, shortened: as §1

SF539 (Glioblastoma) = test system: SF539 (Glioblastoma)
Procedure, shortened: as §1

[7] = test system: PANC-03-27 (Pancreatic Carcinoma)
Procedure, shortened: as §1

LN-229 (Glioblastoma) = test system: LN-229 (Glioblastoma)
Procedure, shortened: as §1

[8] = test system: PC-3_[JPC-3] (Lung Adenocarcinoma)
Procedure, shortened: as §1

[9] = test system: GP5d (Colorectal Carcinoma)
Procedure, shortened: as §1

[10] = test system: RERF-LC-Sq1 (Squamous Cell Lung Carcinoma)
Procedure, shortened: as §1

[11] = test system: NCI-H2342 (Lung Adenocarcinoma)
Procedure, shortened: as §1

[12] = test system: KE-37 (T-Lymphoblastic Leukemia)
Procedure, shortened: as §1

SF268 (Low Grade Glioma) = test system: SF268 (Low Grade Glioma)
Procedure, shortened: as §1

A2058 (Melanoma) = test system: A2058 (Melanoma)
Procedure, shortened: as §1

[13] = test system: MFE-280 (Endometrial Carcinoma)
Procedure, shortened: as §1

[14] = test system: MKN45 (Gastric Carcinoma)
Procedure, shortened: as §1

SMILES | Bliss excess (IST-MES1 (Mesothelioma)) | Bliss excess (WM793B (Melanoma)) | Bliss excess [1] | Bliss excess [2] | Bliss excess [3] | Bliss excess [4] | Bliss excess [5] | Bliss excess [6] | Bliss excess (SF539 (Glioblastoma)) | Bliss excess [7] | Bliss excess (LN-229 (Glioblastoma)) | Bliss excess [8] | Bliss excess [9] | Bliss excess [10] | Bliss excess [11] | Bliss excess [12] | Bliss excess (SF268 (Low Grade Glioma)) | Bliss excess (A2058 (Melanoma)) | Bliss excess [13] | Bliss excess [14]
CN(CCO)CC[C@H](CSc1ccccc1)Nc1ccc(S(=O)(=O)NC(=O)c2ccc(N3CCC([C@@H](O)c4ccccc4-c4ccc(Cl)cc4)CC3)cc2)cc1S(=O)(=O)C(F)(F)F [AZD4320] + C=CCn1c(=O)c2cnc(Nc3ccc(N4CCN(C)CC4)cc3)nc2n1-c1cccc(C(C)(C)O)n1 [AZD1775] (first compound max 1 µM, partner max 1 µM) | -0.0274 | -0.0248 | 0.0462 | 0.0074 | 0.0052 | 0.0105 | 0.0877 | 0.0213 | -0.0518 | 0.0079 | 0.0438 | -0.0114 | -0.0238 | -0.0021 | 0 | 0.0578 | 0.0042 | 0.0066 | 0.0823 | 
CN(CCO)CC[C@H](CSc1ccccc1)Nc1ccc(S(=O)(=O)NC(=O)c2ccc(N3CCC([C@@H](O)c4ccccc4-c4ccc(Cl)cc4)CC3)cc2)cc1S(=O)(=O)C(F)(F)F [AZD4320] + Cn1cnc2c(F)c(Nc3ccc(Br)cc3Cl)c(C(=O)NOCCO)cc21 [Selumetinib] (first compound max 1 µM, 7x7, partner max 3 µM) | 0.0318 | 0.0604 | -0.0039 | -0.0115 | -0.0198 | -0.0134 | 0.0429 | 0.183 | 0.0176 | 0.0406 | 0.0585 | 0.0339 | 0.0908 | 0.0158 |  | 0.0464 | 0.0069 |  | -0.0211 | -0.0725
Cc1c2c(nn1C)CSCc1cc(n(C)n1)CSc1cc(c3ccccc3c1)OCCCc1c(C(=O)O)n(C)c3c-2c(Cl)ccc13 [AZD5991] + CCN(CCO)CCCOc1ccc2c(Nc3cc(CC(=O)Nc4cccc(F)c4)[nH]n3)ncnc2c1 [AZD2811] (first compound max 1 µM, 7x7, partner max 1 µM) | -0.002 | 0.0264 |  | 0.0173 | 0.0869 | -0.0115 | -0.034 | 0.132 | 0.0184 | 0.0566 | 0.0043 | -0.0049 | -0.0319 | 0.043 | -0.0613 | 0.0133 | 0.0835 | 0.114 | 0.053 | -0.0123
Cc1c2c(nn1C)CSCc1cc(n(C)n1)CSc1cc(c3ccccc3c1)OCCCc1c(C(=O)O)n(C)c3c-2c(Cl)ccc13 [AZD5991] + C[C@@H]1COCCN1C2=NC(=NC(=C2)C3(CC3)[S@](=N)(=O)C)C4=C5C=CNC5=NC=C4 [AZD6738] (first compound max 1 µM, 7x7, partner max 10 µM) |  | 0.0503 | 0.0708 | 0.0046 | -0.0175 | 0.0146 | -0.0048 | 0.0284 | -0.0231 | 0.0059 | 0.0344 | 0.0547 | 0.002 | 0.0273 | 0.0291 | 0.0338 | 0.0188 | 0.0756 | 0.0388 | -0.0812
Cc1c2c(nn1C)CSCc1cc(n(C)n1)CSc1cc(c3ccccc3c1)OCCCc1c(C(=O)O)n(C)c3c-2c(Cl)ccc13 [AZD5991] + Cc1cc2ncnn2cc1Nc1ncc2c(n1)n(C1CCOCC1)c(=O)n2C [AZD7648] (first compound max 1 µM, 7x7, partner max 10 µM) | -0.0122 | -0.024 | 0.0148 | -0.0419 | -0.0404 | 0.0019 | -0.0359 | -0.0003 | 0.0057 | -0.0286 | -0.0525 | -0.0306 | -0.0338 | -0.0088 | -0.0535 | -0.0059 | 0.0006 | -0.067 |  | -0.0528
COc1cccc2c1C(=O)c1c(O)c3c(c(O)c1C2=O)C[C@@](O)(C(=O)CO)C[C@@H]3O[C@H]1C[C@H](N)[C@H](O)[C@H](C)O1 [Doxorubicin] + Cc1cc2ncnn2cc1Nc1ncc2c(n1)n(C1CCOCC1)c(=O)n2C [AZD7648] (first compound max 1 µM, 7x7, partner max 10 µM) | 0.0455 | 0.0438 | 0.0855 |  | 0.105 | 0.0925 | 0.0556 | 0.126 | 0.0403 | 0.0557 | -0.0159 | -0.027 | 0.081 | 0.0444 | 0.0128 | 0.0912 | 0.0462 | 0.0185 | 0.0107 | 0.0162
CS(=O)(=O)CCNCc1ccc(-c2ccc3ncnc(Nc4ccc(OCc5cccc(F)c5)c(Cl)c4)c3c2)o1 [Lapatinib] + NC1(c2ccc(-c3nc4ccn5c(=O)[nH]nc5c4cc3-c3ccccc3)cc2)CCC1 [MK-2206] (first compound max 10 µM, 7x7, partner max 10 µM) | 0.0433 |  | -0.0173 | -0.0089 | 0.1 | 0.0303 | -0.0136 |  | -0.0077 | -0.0064 | -0.0959 | -0.0174 |  |  | -0.0499 |  |  | -0.049 | -0.006 | -0.0466
COc1cccc(OCCCN)c1-c1cc(Nc2cnc(C#N)cn2)n[nH]1 [Prexasertib] + C=CCn1c(=O)c2cnc(Nc3ccc(N4CCN(C)CC4)cc3)nc2n1-c1cccc(C(C)(C)O)n1 [AZD1775] (first compound max 1 µM, partner max 1 µM) | 0.127 | 0.0129 | 0.0829 |  | 0.0025 | 0.0739 | 0.0413 | 0.084 | 0.0187 | -0.0327 | -0.0177 | 0.0258 | 0.035 | 0.0621 | -0.0136 | 0.0311 | 0.0619 | 0.0994 | 0.176 | -0.0561
COc1cccc(OCCCN)c1-c1cc(Nc2cnc(C#N)cn2)n[nH]1 [Prexasertib] + CN(C)CCCOc1ccc(-c2ccc3ncc4c(c3c2)n(C2CCOCC2)c(=O)n4C)cn1 [AZD0156] (first compound max 1 µM, 7x7, partner max 1 µM) | -0.0211 | -0.0265 | -0.0009 |  | -0.0141 | -0.0181 | 0.0107 | -0.0256 | -0.0339 | -0.0704 | -0.035 | -0.0526 | 0.0215 | -0.0209 | -0.0272 | -0.0022 | 0.0592 | 0.007 | -0.0219 | -0.0645
COc1cccc(OCCCN)c1-c1cc(Nc2cnc(C#N)cn2)n[nH]1 [Prexasertib] + C[C@@H]1COCCN1C2=NC(=NC(=C2)C3(CC3)[S@](=N)(=O)C)C4=C5C=CNC5=NC=C4 [AZD6738] (first compound max 1 µM, 7x7, partner max 10 µM) | 0.0093 | -0.05 | 0.0078 |  | -0.0438 | -0.0182 | 0.0645 | -0.0333 | -0.0046 | -0.0577 | -0.0577 | 0.0576 | -0.0157 | -0.0492 | 0.0378 | 0.0043 | -0.0421 | 0.0232 | -0.024 | -0.0931
COc1cccc(OCCCN)c1-c1cc(Nc2cnc(C#N)cn2)n[nH]1 [Prexasertib] + Cc1cc2ncnn2cc1Nc1ncc2c(n1)n(C1CCOCC1)c(=O)n2C [AZD7648] (first compound max 1 µM, 7x7, partner max 10 µM) | -0.0032 | -0.0169 | -0.008 |  | -0.0503 | -0.037 | -0.0143 | -0.0383 | 0.014 | -0.0606 | -0.0596 | -0.0103 | 0.033 | -0.0281 | -0.0216 | -0.006 | 0.0078 | 0.0025 | 0.0032 | -0.0229
COc1cccc(OCCCN)c1-c1cc(Nc2cnc(C#N)cn2)n[nH]1 [Prexasertib] + O=C(c1cc(Cc2n[nH]c(=O)c3ccccc23)ccc1F)N1CCN(C(=O)C2CC2)CC1 [Olaparib] (first compound max 1 µM, 7x7, partner max 10 µM) | -0.0105 | -0.0688 | 0.003 |  | -0.0689 | -0.0249 | -0.0791 | 0.0354 | 0.0007 | -0.0102 | -0.181 | -0.0525 | -0.0179 | -0.0373 | -0.0509 | 0.0073 | 0.0208 | 0.0158 | -0.0223 | -0.044
COc1cc2c(cc1OCCCCCOc1cc3c(cc1OC)C(=O)N1C=C(C)C[C@H]1C=N3)N=C[C@@H]1CC(C)=CN1C2=O [SG3199] + O=C(c1cc(Cc2n[nH]c(=O)c3ccccc23)ccc1F)N1CCN(C(=O)C2CC2)CC1 [Olaparib] (first compound max 0.001 µM, 7x7, partner max 10 µM) | -0.0402 | -0.0198 | -0.0372 |  | -0.0295 | -0.0137 | -0.0137 | -0.0009 | -0.0049 | -0.062 | -0.0454 | -0.0368 | -0.0206 | 0.0049 | -0.0569 | 0.0055 | -0.0297 | -0.0172 | -0.0092 | -0.0633
CCc1c2c(nc3ccc(O)cc13)-c1cc3c(c(=O)n1C2)COC(=O)[C@]3(O)CC [SN-38] + CN(C)CCCOc1ccc(-c2ccc3ncc4c(c3c2)n(C2CCOCC2)c(=O)n4C)cn1 [AZD0156] (first compound max 0.3 µM, 7x7, partner max 1 µM) | 0.0085 | -0.0295 | 0.121 |  | 0.0355 | 0.0959 | 0.0296 | -0.0007 | 0.0216 | -0.0071 | -0.0305 | -0.0551 | 0.0624 | 0.114 | -0.0425 | 0.0603 | 0.0609 | 0.0477 | -0.0605 | -0.049
C[C@@H](c1ccc2nccn2c1)n1nnc2ncc(-c3cnn(C)c3)nc21 [Savolitinib] + CN(CC[C@H](CSC1=CC=CC=C1)NC2=C(C=C(C=C2)S(=O)(=O)NC(=O)C3=CC=C(C=C3)N4CCC(CC4)[C@H](C5=CC=CC=C5C6=CC=C(C=C6)Cl)O)S(=O)(=O)C(F)(F)F)CCO [AZD4320] (first compound max 1 µM, 7x7, partner max 1 µM) |  | -0.0644 | 0.112 | -0.0451 |  |  |  | -0.0378 |  |  | -0.0833 |  | -0.0339 | -0.0075 |  | -0.0327 | -0.0491 | 0.0035 |  | 
